# The Bradley open melting point set (2014)
# Values joined by “and” are separate entries in the source; they are usually repeats but may differ in a detail not shown here. Equal entries are not always repeated.
row,Compound,melting point
1,"COc1cc(/C=C/C(=O)c2ccccc2O)ccc1O [2',4-dihydroxy-3-methoxychalcone]",128 °C
2,NC(CN(Cc1ccccc1)c1ccccc1)=NO [Cetoxime],107 °C
3,N#Cc1ccc([N+](=O)[O-])cc1Cl [2-chloro-4-nitrobenzonitrile],80 °C
4,CCCNC(=O)NS(=O)(=O)c1ccc(Cl)cc1 [chlorpropamide],128 °C
5,"Cl[C@H]1[C@H](Cl)[C@@H](Cl)[C@H](Cl)[C@H](Cl)[C@H]1Cl [(1R,2R,3R,4R,5S,6S)-1,2,3,4,5,6-Hexachlorocyclohexane]",159 °C
6,CN1CCC(N(Cc2ccccc2)c2ccccc2)CC1 [bamipine],114 °C
7,O=C(Cl)CCCCl [4-chlorobutyryl chloride],-49 °C
8,Cc1ncccc1O [3-hydroxy-2-methylpyridine],168 °C
9,Cc1c(CSC2OCC(O)C(O)C2O)c(C)c(CSC2OCC(O)C(O)C2O)c(C)c1CSC1OCC(O)C(O)C1O (stereo not given),209 °C
10,CCCCCCCC [octane],-57 °C and -56.8 °C
11,c1ccc2c(c1)ccc1cc3c(ccc4ccccc43)cc12 [Benzo[k]tetraphene],266 °C
12,CS(=O)(=O)OS(C)(=O)=O [methanesulfonic anhydride],67 °C
13,Oc1ccc(Cl)cc1 [p-chlorophenol],44 °C
14,Cc1ccc(N)cc1 [p-toluidine],44 °C
15,O=C(O)c1cccc(CO)c1 [m-hydroxymethyl_benzoic_acid],115 °C
16,CC1(C)CC(=O)c2c(cc3c(c2-c2ccccc2)-c2ccccc2OC3)C1,191 °C
17,"Cc1cc(C)n(C)n1 [1,3,5-trimethyl-1h-pyrazole]",36 °C
18,CCCCC#N [butyl_cyanide],-96 °C
19,O=S(Br)Br [thionyl bromide],-52 °C
20,OCc1cc(Cl)ccc1O [5-chloro-2-hydroxybenzyl alcohol],86 °C
21,O=[N+]([O-])c1ccc(NS(=O)(=O)c2ccccc2)cc1 [4-nitro-1-phenylsulfonamidobenzene],138 °C
22,CC(=O)O[Si](C)(OC(C)=O)OC(C)=O [triacetoxy(methyl)silane],43 °C
23,Brc1ccc(Br)cc1 [p-dibromobenzene],88 °C
24,Nc1ccc([N+](=O)[O-])cc1 [4-nitroaniline],148 °C
25,c1cc2ccc3cccc4ccc(c1)c2c34 [pyrene],156 °C
26,ClC1=C(Cl)C2(Cl)C3C(Cl)C(Cl)CC3C1(Cl)C2(Cl)Cl (stereo not drawn) [trans-gamma-chlordane],106 °C
27,O=C(O)CCN1C(=O)COc2ccc(Cl)cc21,148 °C
28,N=C1c2ccccc2C(=O)N1c1n[nH]c2ncccc12,254 °C
29,CCc1ncc[nH]1 [2-ethylimidazole],82 °C

# Second part, the compound after the results:
row,melting point,Compound
1,174 °C,C[C@H](CCC(=O)O)[C@H]1CC[C@H]2[C@@H]3CC[C@@H]4C[C@H](O)CC[C@]4(C)[C@H]3C[C@H](O)[C@]12C [deoxycholic acid]
2,104 °C,"NNc1cc(Cl)ccc1Cl [2,5-dichlorophenylhydrazine]"
3,124 °C,CCOC(=O)/C(C#N)=C/c1ccc(-c2ccccc2Br)o1
4,206 °C,"Cc1c(C(=O)O)cc([N+](=O)[O-])cc1[N+](=O)[O-] [2-Methyl-3,5-dinitrobenzoic acid]"
5,47 °C,"CC1(C)O[C@@H](CO)[C@H](CO)O1 [2,3-o-isopropylidene-l-threitol]"
6,168 °C,Cc1[nH]cnc1C=O [5-methylimidazole-4-carboxaldehyde]
7,106 °C,CCOC(=O)c1c[nH]nc1N [ethyl 3-amino-1h-pyrazole-4-carboxylate]
8,148 °C,"O=C(O)c1cc(Cl)sc1Cl [2,5-dichlorothiophene-3-carboxylic acid]"
9,-48 °C,C=C(C)C(=O)OC [methyl_methacrylate]
10,195 °C,CCCN(CCC)S(=O)(=O)c1ccc(C(=O)O)cc1 [4-(Dipropylsulfamoyl)benzoic acid]
11,-43 °C,CCCCCCCS [1-heptanethiol]
12,192 °C,NC(=O)c1cnccn1 [Pyrazinamide]
13,-92 °C,CC(=O)C(C)C [3-methyl-2-butanone]
14,-21 °C,CCC(=O)O [propionic acid]
15,81 °C,Cc1nc(N)ccc1Br [6-amino-3-bromo-2-methylpyridine]
16,61 °C,CC(C)c1ncc([N+](=O)[O-])n1C [ipronidazole]
17,-75 °C,CCCC(=O)OC(=O)CCC [butyric anhydride]
18,205 °C,"O=C(O)c1cc(O)ccc1O [2,5-Dihydroxybenzoic acid]"
19,48 °C,Cc1ccc(-c2ccccc2)cc1 [1-methyl-4-phenylbenzene]
20,-58 °C,"COCCOC [1,2-Dimethoxyethane]"
21,238 °C,"CC(=N/O)/C(C)=N\O [(2Z,3Z)-N,N'-Dihydroxybutane-2,3-diimine]"
